We go through 5 compounds from ChEMBL document CHEMBL1817618, “Synthesis and evaluation of dual site inhibitors of 3-deoxy-D-arabino-heptulosonate 7-phosphate synthase” (Bioorg Med Chem Lett, 2011).

The target in assay [1] is T1, Phospho-2-dehydro-3-deoxyheptonate aldolase (Escherichia coli, UniProt C3TIE2). As to the kind of experiment: Inhibition of recombinant Escherichia coli DAH7P synthase.
Assay [2] deals with T1, Phospho-2-dehydro-3-deoxyheptonate aldolase. As to the kind of experiment: Competitive inhibition of recombinant Escherichia coli DAH7P synthase using PEP as substrate by Michaelis-Menten equation analysis using UV-visible spectrophotometry.

T1 sequence (C3TIE2 whole entry): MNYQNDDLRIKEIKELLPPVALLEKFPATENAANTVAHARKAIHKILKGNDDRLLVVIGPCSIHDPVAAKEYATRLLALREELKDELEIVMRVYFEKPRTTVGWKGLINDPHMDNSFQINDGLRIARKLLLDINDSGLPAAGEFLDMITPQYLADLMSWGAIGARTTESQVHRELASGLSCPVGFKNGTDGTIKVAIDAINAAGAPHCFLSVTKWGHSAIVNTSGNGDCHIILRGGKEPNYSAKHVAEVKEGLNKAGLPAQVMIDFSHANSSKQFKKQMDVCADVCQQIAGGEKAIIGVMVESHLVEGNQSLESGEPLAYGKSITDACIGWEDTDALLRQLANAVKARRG

As a reminder, the Ki is the dissociation constant of the complex between target and ligand, obtained from inhibition or displacement. `C=C(CP(=O)(O)O)C(=O)O`: the Ki in assay [1] stood at 270 µM.
On the same count and under the same terms, for `C/C(=C\P(=O)(O)O)C(=O)O` the value was 4.7 µM.
`O=C(O)/C(=C/P(=O)(O)O)CCCCCBr`: the Ki in assay [2] came to 3.6 µM.
Still for that read-out and setting: next, `O=C(O)C(=CCCCCOP(=O)(O)O)CP(=O)(O)O` (mixture of isomers): 154 µM.
Regarding `O=C(O)C(=CP(=O)(O)O)CCCCCOP(=O)(O)O` (mixture of isomers), the Ki in assay [2] turned out to be 5.3 µM.
